Experimental data from patent US7053043B1, “Pharmaceutical compositions comprising synthetic peptide copolymers and methods for preventing and treating GVHD and HVGD” (Yeda Research and Development Co.Ltd., priority 1999, dated 2006).

What was measured:
[1] = system: presentation of BALB/c minor H antigens by B10.D2 APC to B10.D2 responder T cells; experiment: Proliferative responses to minor H antigens, APC pre-pulsed with Cop 1 and washed; format: cell-based, mice; conditions: washed
Protocol: (§1) B10.D2 mice were injected ip. with irradiated (20 Gy) BALB/c spleen cells 72 hours prior to the assay. B10.D2 spleen cells were harvested, depleted of red blood cells (RBC) and used as irradiated (10 Gy) antigen-presenting cells (APC) presenting BALB/c mH antigens. For the primary assay, APC were plated at 2.5×10^5 cells per well in 96-well round-bottom plates and incubated with 2.5×10^5 nylon-wool-enriched responder T cells (>88% CD3^+ by FACS analysis) from naive B10.D2 mice in the presence or absence of increasing concentrations of Copolymer 1 (2.5–80 μg/well). After 96 hours of incubation, cells were pulsed with 1 μCi [^3H]-thymidine for an additional 16 hours before harvesting. In the secondary assay, irradiated APC were plated at 2.5×10^5 cells/well in 96-well round-bottom plates, preincubated for 24 hours at 37° C. with increasing concentrations of GLAT (2.5–80 μg/well) or with medium alone, and thereafter washed three times before the addition of 2.5×10^5 nylon-wool-enriched responder T cells from naive B10.D2 mice. Culture medium was RPMI 1640, supplemented with 10% pre-screened fetal calf serum, 2 mM glutamine, 50 μM 2-mercaptoethanol, 100 U/ml penicillin, and 100 μg/ml streptomycin.
[…] Results are expressed as cpm from triplicate cultures. Standard deviations were <20% of the mean. Culture medium was RPMI 1640, supplemented with 10% pre-screened fetal calf serum, 2 mM glutamine, 50 μM 2-mercaptoethanol, 100 U/ml penicillin, and 100 μg/ml streptomycin.

[2] = system: GVHD in B10.D2 → BALB/c recipients; experiment: Murine lethal GVHD model after bone marrow transplantation, B10.D2/nSnJ→BALB/c; format: in vivo, mice; conditions: for overall incidence of GVHD: 600 μg per injection (ip + sc)
Protocol: The murine GVHD model of B10.D2/nSnJ→BALB/c mice (both H-2^d) across minor histocompatibility barriers, was selected since it is similar to the MHC matched bone marrow transplantation in humans. For the induction of GVHD, 10×10^6 bone marrow and 100×10^6 spleen cells from B10.D2 mice were injected into lethally irradiated (8.0 Gy) BALB/c recipients. […] Recipient mice were 12–13 weeks at the time of transplantation.
Based on previous studies with Cop 1 in EAE (Sela et al., 1990; Teitelbaum et al., 1971; Teitelbaum et al., 1973) and class II-binding competitor peptides in GVHD (Schlegel et al., 1994), the dosage of 600 μg per injection was selected, half of which was administered intraperitoneally (ip), whereas the other half was given subcutaneously (sc). Treatment of BALB/c recipient mice was initiated on day −1, followed by daily injections for the first five weeks starting on day 0 after transplantation. The frequency of injections was tapered to three times per week for the subsequent two weeks and to two times per week for another two weeks and then discontinued. Throughout the experiment, copolymers and controls were administered once a week with incomplete Freund's adjuvant (IFA) ip as a depot dose (Schlegel et al., 1994). Treatment was discontinued 9 weeks after transplantation.
Mice were followed up daily for 140 days after bone marrow transplantation for signs of GVHD. Disease severity was assessed by mortality, loss of body weight, and by the extent of macroscopic skin involvement scored on a cumulative scale (from min O— max 8): head 1, neck 1, back (1/3, 2/3, 3/3) 1–3, front (1/3, 2/3, 3/3) 1–3. Skin biopsies were examined as previously described (Schlegel et al., 1994).
(ii) Effect of Copolymer 1 Treatment on the Incidence, Onset and Severity of GVHD. […] For the first five weeks after transplant mice were injected daily as outlined in Materials and Methods, followed by a tapering schedule over an additional four weeks.
(iii) Effect of Copolymer 1 treatment on survival. […]

[3] = system: B10.D2 responder T cells with APC presenting BALB/c mH antigens; experiment: Proliferative responses to minor H antigens in vitro, Cop 1 present in the assay; format: cell-based, mice; conditions: for cpm (Cop 1 Assay Concentration): Resp. + APC
Protocol: as §1, with “[…]).” for “analysis) from naive B10.D2 mice in the presence or absence of increasing concentrations of Copolymer 1 (2.5–80 μg/well).”
B10.D2 mice were injected ip with irradiated (20 Gy) BALB/c spleen cells 72 hours prior to the assay. B10.D2 spleen cells were harvested, depleted of RBC and used as irradiated (10 Gy) APC presenting BALB/c mH antigens. APC were plated at 2.5×10^5 cells/well in 96-well round-bottom plates and incubated with 2.5×10^5 nylon-wool-enriched responder T cells (>88% CD3^+ by FACS analysis) from naive B10.D2 mice in the presence or absence of increasing concentrations of Copolymer 1 (Batch I) (2.5–80 μg/well). After 96 hours of incubation, cells were pulsed with 1 μCi [^3H]-thymidine for an additional 16 hours before harvesting. […] Maximum inhibition was 100% at a concentration of 80 μg/well.

Glatiramer acetate [Cop 1]
cpm (Cop 1 Pulsing Concentration) ([1]; APC pre-pulsed 24 hours with Cop 1 1.5 μg (Batch II)): 15,533 cpm | cpm (Cop 1 Pulsing Concentration) ([1]; APC pre-pulsed 24 hours with Cop 1 5 μg (Batch II)): 12,377 cpm | cpm (Cop 1 Pulsing Concentration) ([1]; APC pre-pulsed 24 hours with Cop 1 10 μg (Batch II)): 11,425 cpm | cpm (Cop 1 Pulsing Concentration) ([1]; APC pre-pulsed 24 hours with Cop 1 20 μg (Batch II)): 10,465 cpm | cpm (Cop 1 Pulsing Concentration) ([1]; APC pre-pulsed 24 hours with Cop 1 40 μg (Batch II)): 7,653 cpm | cpm (Cop 1 Pulsing Concentration) ([1]; APC pre-pulsed 24 hours with Cop 1 80 μg (Batch II)): 4,628 cpm | long-term survival from lethal graft-versus-host disease ([2]; 600 μg per injection): improved long-term survival | animals (without GVHD) to the observation period of 140 days after transplant ([2]; 600 μg per injection, Batch I): Nine of 25 | mice survived more than 140 days after transplant ([2]; 600 μg per injection, Batch I): 56% | overall disease severity (disease severity score, mean body weight curves) ([2]; 600 μg per injection, Batch I): improved overall disease severity | overall incidence of GVHD ([2]; day 30 after transplant, Cop 1 Batch I): 12% | overall incidence of GVHD ([2]; day 70 after transplant, Cop 1 Batch I): 48% | median onset of GVHD ([2]; days after transplant, 600 μg per injection): 73 days | onset of GVHD, range ([2]; days after transplant, in 12/25 treated animals, 600 μg per injection): 32 to 112 days | mice survived more than 140 days after transplant ([2]; survivors/treated, 600 μg per injection, Cop 1 Batch I): 14/25 | Maximum inhibition of proliferative responses to mH antigens ([3]; 80 μg/well): 100% | cpm (Cop 1 Assay Concentration) ([3]; Cop 1 1.5 μg): 124,904 cpm | cpm (Cop 1 Assay Concentration) ([3]; Cop 1 5 μg): 126,405 cpm | cpm (Cop 1 Assay Concentration) ([3]; Cop 1 10 μg): 119,866 cpm | cpm (Cop 1 Assay Concentration) ([3]; Cop 1 20 μg): 75,840 cpm | cpm (Cop 1 Assay Concentration) ([3]; Cop 1 40 μg): 23,591 cpm | cpm (Cop 1 Assay Concentration) ([3]; Cop 1 80 μg): 361 cpm
